Data taken from PMC11237012, “Synthesis and preliminary evaluation of novel PET probes for GSK-3 imaging” (Scientific Reports, 2024).

Test: Ex vivo biodistribution
Assay type: in vivo, wild-type FVB/NJ mice
Procedure: To further understand the pharmacokinetics of [^18F]2, ex vivo biodistribution was performed with different groups of mice with and without co-administration of 2. Animals were sacrificed at 5 min, 10 min and 120 min post-injection of [^18F]2. Vital organs and tissues were collected and uptake of the [^18F]2 was measured as SUV after counting the radioactivity in each harvested tissue. […] Additionally, observed higher uptake of [^18F]2 in pancreas could potentially be extended to beta cell mass imaging as a separate study. […] Therefore, it would be valuable to evaluate PET [^18F]2 in pathological conditions to finally evaluate its selectivity, binding affinity, and retention in vivo in the presence and absence of self-blocking as a future study.
Uptake of PET probe [^18F]2 (1.40 ± 0.61 MBq) was assessed with and without co-administration of 2 in 10–13-week-old wild-type FVB/NJ mice (The Jackson Laboratory, Bar Harbor, ME) after tail vein injection followed by PET imaging at 5 min, 10 min, 15 min, 20 min, 25 min, 30 min, 40 min, 50 min, 60 min and 120 min post injection. Additionally, ex vivo biodistribution was performed at 5 min, 10 min and 120 min post tail vein injection. To prepare [^18F]2 formulation for injection, 0.76 ± 0.48 µg (2.01 ± 1.27 nmol) of [^18F]2 was formulated in 10% ethanol/ 90% isotonic saline. For the blocking experiment, 20.21 ± 1.63 µg (53.75 ± 4.33 nmol) of 2 in DMSO was added to [^18F]2 (Am of 87.27 ± 77.26 (n = 13) GBq/µmole, having 0.46 ± 0.31 µg or 1.23 ± 0.83 nmol of nonradioactive 2 in it) in the final formulation volume of ~ 100 µL. This study had 12 wild type FVB/NJ male mice with body weight 31.8 ± 2.7 g and 10 wild type FVB/NJ female mice with body weight 27.0 ± 3.6 g at the time of imaging. All the animals were anesthetized for tail vein injection and PET imaging using an induction dose of 3% isoflurane and a maintenance dose of 2–3% isoflurane, which was administered via isoflurane vaporizer. All anesthetized animals were kept warm during imaging using a heat supported imaging chamber. For ex vivo biodistribution studies, animals were sacrificed at 5 min, 10 min and 120 min post-injection by cervical dislocation and tissues were harvested for gamma counting. For PET imaging studies, each animal underwent a 60 min dynamic PET scan (Framing Sequence: 1 × 10 s, 4 × 15 s, 8 × 30 s, 5 × 60 s, 4 × 300 s, 3 × 600 s) immediately post injection followed by 10 min static PET scan at 120 min post-injection on small animal micro-PET/X-ray system, Genesys 4 (Sofie BioSystems, Dulles, VA, USA). The PET images were reconstructed using Genesys 4 imaging software installed on the imaging system. The obtained PET images were visualized and analyzed using image analysis software, “Amide's a medical image data examiner-AMIDE”[53]. PET images were normalized to the standardized uptake value (SUV) where; SUV=ConcentrationofdoseintissueμCi/g×Weightoftheanimal(g)/Injecteddose(μCi).

SUV, Average ± SD (Adipose, 5 min post-injection, [^18F]2 + 20 µg of 2): 0.33 ± 0.05
SUV, Average ± SD (Adipose, 5 min post-injection, [^18F]2 alone): 0.29 ± 0.09
SUV, Average ± SD (Adipose, 10 min post-injection, [^18F]2 + 20 µg of 2): 0.38 ± 0.05
SUV, Average ± SD (Adipose, 10 min post-injection, [^18F]2 alone): 0.24 ± 0.07
SUV, Average ± SD (Adipose, 120 min post-injection, [^18F]2 + 20 µg of 2): 0.25 ± 0.05
SUV, Average ± SD (Adipose, 120 min post-injection, [^18F]2 alone): 0.14 ± 0.04
SUV, Average ± SD (Bladder, 5 min post-injection, [^18F]2 + 20 µg of 2): 0.71 ± 0.09
SUV, Average ± SD (Bladder, 5 min post-injection, [^18F]2 alone): 0.40 ± 0.12
SUV, Average ± SD (Bladder, 10 min post-injection, [^18F]2 + 20 µg of 2): 0.84 ± 0.13
SUV, Average ± SD (Bladder, 10 min post-injection, [^18F]2 alone): 0.48 ± 0.08
SUV, Average ± SD (Bladder, 120 min post-injection, [^18F]2 + 20 µg of 2): 0.73 ± 0.54
SUV, Average ± SD (Bladder, 120 min post-injection, [^18F]2 alone): 1.58 ± 1.90
SUV, Average ± SD (Blood, 5 min post-injection, [^18F]2 + 20 µg of 2): 0.93 ± 0.14
SUV, Average ± SD (Blood, 5 min post-injection, [^18F]2 alone): 0.38 ± 0.18
SUV, Average ± SD (Blood, 10 min post-injection, [^18F]2 + 20 µg of 2): 0.79 ± 0.12
SUV, Average ± SD (Blood, 10 min post-injection, [^18F]2 alone): 0.34 ± 0.02
SUV, Average ± SD (Blood, 120 min post-injection, [^18F]2 + 20 µg of 2): 0.43 ± 0.07
SUV, Average ± SD (Blood, 120 min post-injection, [^18F]2 alone): 0.15 ± 0.07
SUV, Average ± SD (Bone, 5 min post-injection, [^18F]2 + 20 µg of 2): 0.48 ± 0.02
SUV, Average ± SD (Bone, 5 min post-injection, [^18F]2 alone): 0.30 ± 0.14
SUV, Average ± SD (Bone, 10 min post-injection, [^18F]2 + 20 µg of 2): 0.50 ± 0.03
SUV, Average ± SD (Bone, 10 min post-injection, [^18F]2 alone): 0.29 ± 0.04
SUV, Average ± SD (Bone, 120 min post-injection, [^18F]2 + 20 µg of 2): 1.22 ± 0.31
SUV, Average ± SD (Bone, 120 min post-injection, [^18F]2 alone): 1.08 ± 0.33
SUV, Average ± SD (CN (caudate nucleus), 5 min post-injection, [^18F]2 + 20 µg of 2): 0.65 ± 0.04
SUV, Average ± SD (CN (caudate nucleus), 5 min post-injection, [^18F]2 alone): 0.87 ± 0.48
SUV, Average ± SD (CN (caudate nucleus), 10 min post-injection, [^18F]2 + 20 µg of 2): 0.45 ± 0.05
SUV, Average ± SD (CN (caudate nucleus), 10 min post-injection, [^18F]2 alone): 0.34 ± 0.07
SUV, Average ± SD (CN (caudate nucleus), 120 min post-injection, [^18F]2 + 20 µg of 2): 0.19 ± 0.03
SUV, Average ± SD (CN (caudate nucleus), 120 min post-injection, [^18F]2 alone): 0.06 ± 0.02
SUV, Average ± SD (Heart, 5 min post-injection, [^18F]2 + 20 µg of 2): 1.38 ± 0.11
SUV, Average ± SD (Heart, 5 min post-injection, [^18F]2 alone): 0.69 ± 0.36
SUV, Average ± SD (Heart, 10 min post-injection, [^18F]2 + 20 µg of 2): 1.14 ± 0.16
SUV, Average ± SD (Heart, 10 min post-injection, [^18F]2 alone): 0.45 ± 0.02
SUV, Average ± SD (Heart, 120 min post-injection, [^18F]2 + 20 µg of 2): 0.48 ± 0.12
SUV, Average ± SD (Heart, 120 min post-injection, [^18F]2 alone): 0.16 ± 0.08
SUV, Average ± SD (Left kidney, 5 min post-injection, [^18F]2 + 20 µg of 2): 2.47 ± 0.30
SUV, Average ± SD (Left kidney, 5 min post-injection, [^18F]2 alone): 1.37 ± 0.69
SUV, Average ± SD (Left kidney, 10 min post-injection, [^18F]2 + 20 µg of 2): 2.27 ± 0.32
SUV, Average ± SD (Left kidney, 10 min post-injection, [^18F]2 alone): 1.01 ± 0.16
SUV, Average ± SD (Left kidney, 120 min post-injection, [^18F]2 + 20 µg of 2): 2.18 ± 0.51
SUV, Average ± SD (Left kidney, 120 min post-injection, [^18F]2 alone): 0.54 ± 0.06
SUV, Average ± SD (Lung, 5 min post-injection, [^18F]2 + 20 µg of 2): 1.17 ± 0.15
SUV, Average ± SD (Lung, 5 min post-injection, [^18F]2 alone): 0.65 ± 0.35
SUV, Average ± SD (Lung, 10 min post-injection, [^18F]2 + 20 µg of 2): 1.08 ± 0.15
SUV, Average ± SD (Lung, 10 min post-injection, [^18F]2 alone): 0.48 ± 0.03
SUV, Average ± SD (Lung, 120 min post-injection, [^18F]2 + 20 µg of 2): 0.52 ± 0.09
SUV, Average ± SD (Lung, 120 min post-injection, [^18F]2 alone): 0.18 ± 0.07
SUV, Average ± SD (Muscle, 5 min post-injection, [^18F]2 + 20 µg of 2): 0.90 ± 0.17
SUV, Average ± SD (Muscle, 5 min post-injection, [^18F]2 alone): 0.47 ± 0.23
SUV, Average ± SD (Muscle, 10 min post-injection, [^18F]2 + 20 µg of 2): 0.72 ± 0.09
SUV, Average ± SD (Muscle, 10 min post-injection, [^18F]2 alone): 0.43 ± 0.03
SUV, Average ± SD (Muscle, 120 min post-injection, [^18F]2 + 20 µg of 2): 0.32 ± 0.06
SUV, Average ± SD (Muscle, 120 min post-injection, [^18F]2 alone): 0.11 ± 0.04
SUV, Average ± SD (Pancreas, 5 min post-injection, [^18F]2 + 20 µg of 2): 1.83 ± 0.16
SUV, Average ± SD (Pancreas, 5 min post-injection, [^18F]2 alone): 1.27 ± 0.56
SUV, Average ± SD (Pancreas, 10 min post-injection, [^18F]2 + 20 µg of 2): 1.53 ± 0.15
SUV, Average ± SD (Pancreas, 10 min post-injection, [^18F]2 alone): 0.85 ± 0.23
SUV, Average ± SD (Pancreas, 120 min post-injection, [^18F]2 + 20 µg of 2): 0.57 ± 0.15
SUV, Average ± SD (Pancreas, 120 min post-injection, [^18F]2 alone): 0.22 ± 0.09
SUV, Average ± SD (Right kidney, 5 min post-injection, [^18F]2 + 20 µg of 2): 2.46 ± 0.18
SUV, Average ± SD (Right kidney, 5 min post-injection, [^18F]2 alone): 1.34 ± 0.69
SUV, Average ± SD (Right kidney, 10 min post-injection, [^18F]2 + 20 µg of 2): 2.30 ± 0.35
SUV, Average ± SD (Right kidney, 10 min post-injection, [^18F]2 alone): 0.97 ± 0.12
SUV, Average ± SD (Right kidney, 120 min post-injection, [^18F]2 + 20 µg of 2): 2.30 ± 0.81
SUV, Average ± SD (Right kidney, 120 min post-injection, [^18F]2 alone): 0.48 ± 0.15
SUV, Average ± SD (Skin, 5 min post-injection, [^18F]2 + 20 µg of 2): 0.66 ± 0.16
SUV, Average ± SD (Skin, 5 min post-injection, [^18F]2 alone): 0.46 ± 0.17
SUV, Average ± SD (Skin, 10 min post-injection, [^18F]2 + 20 µg of 2): 0.66 ± 0.10
SUV, Average ± SD (Skin, 10 min post-injection, [^18F]2 alone): 0.52 ± 0.16
SUV, Average ± SD (Skin, 120 min post-injection, [^18F]2 + 20 µg of 2): 0.71 ± 0.66
SUV, Average ± SD (Skin, 120 min post-injection, [^18F]2 alone): 0.10 ± 0.04
SUV, Average ± SD (Spleen, 5 min post-injection, [^18F]2 + 20 µg of 2): 1.00 ± 0.05
SUV, Average ± SD (Spleen, 5 min post-injection, [^18F]2 alone): 0.74 ± 0.27
SUV, Average ± SD (Spleen, 10 min post-injection, [^18F]2 + 20 µg of 2): 1.14 ± 0.50
SUV, Average ± SD (Spleen, 10 min post-injection, [^18F]2 alone): 0.55 ± 0.20
SUV, Average ± SD (Spleen, 120 min post-injection, [^18F]2 + 20 µg of 2): 0.44 ± 0.11
SUV, Average ± SD (Spleen, 120 min post-injection, [^18F]2 alone): 0.15 ± 0.07
SUV, Average ± SD (Stomach, 5 min post-injection, [^18F]2 + 20 µg of 2): 0.86 ± 0.32
SUV, Average ± SD (Stomach, 5 min post-injection, [^18F]2 alone): 0.80 ± 0.24
SUV, Average ± SD (Stomach, 10 min post-injection, [^18F]2 + 20 µg of 2): 0.97 ± 0.63
SUV, Average ± SD (Stomach, 10 min post-injection, [^18F]2 alone): 0.53 ± 0.09
SUV, Average ± SD (Stomach, 120 min post-injection, [^18F]2 + 20 µg of 2): 1.28 ± 1.08
SUV, Average ± SD (Stomach, 120 min post-injection, [^18F]2 alone): 0.68 ± 0.41
SUV, Average ± SD (Urine, 5 min post-injection, [^18F]2 + 20 µg of 2): 0.20 ± 0.29
SUV, Average ± SD (Urine, 5 min post-injection, [^18F]2 alone): 0.10 ± 0.10
SUV, Average ± SD (Urine, 10 min post-injection, [^18F]2 + 20 µg of 2): 0.85 ± 0.79
SUV, Average ± SD (Urine, 10 min post-injection, [^18F]2 alone): 1.78 ± 1.21
SUV, Average ± SD (Urine, 120 min post-injection, [^18F]2 + 20 µg of 2): 3.20 ± 2.32
SUV, Average ± SD (Urine, 120 min post-injection, [^18F]2 alone): 20.55 ± 8.76
SUV, Average ± SD (liver, 5 min post-injection, [^18F]2 + 20 µg of 2): 8.37 ± 0.36
SUV, Average ± SD (liver, 5 min post-injection, [^18F]2 alone): 11.85 ± 0.33
SUV, Average ± SD (liver, 10 min post-injection, [^18F]2 + 20 µg of 2): 7.85 ± 0.41
SUV, Average ± SD (liver, 10 min post-injection, [^18F]2 alone): 14.43 ± 1.48
SUV, Average ± SD (liver, 120 min post-injection, [^18F]2 + 20 µg of 2): 4.00 ± 0.22
SUV, Average ± SD (liver, 120 min post-injection, [^18F]2 alone): 3.08 ± 1.44
Structure (SMILES): O=C(Nc1cnccc1-c1ccc([18F])cc1)c1ccnc(NC(=O)C2CC2)c1 [[^18F]2]
